Results as given in patent US8741836B2, “Polypeptides” (Novo Nordisk A/S, priority 2011, dated 2014).
Starred links: 1 amine or outer side, 2 acyl side, 3 side chain; linkers in the order of their positions; H or OH if unused. Positions of bridges follow the written chain, without caps; N, C: chain ends. Residues, ends and D or L forms follow the SMILES beside them. *: point of attachment. C20 diacid = O=C(O)CCCCCCCCCCCCCCCCCCC(=O)*; γGlu = O=C(O)[C@H](CCC(=O)[*:2])N[*:1]

Assay: Assay (III) ThT fibrillation assay for physical stability
Assay type: physicochemical
Settings: for ThT pH 4.0 lag time: pH 4.0, ThT fibrillation assay
Summary of the method: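 Freshly prepared, pH-adjusted formulations with 1 μM ThT incubated at 37 °C under 960 rpm orbital shaking (1 mm), fluorescence (ex 444, em 485 nm) read every 20 min. […] Peptide content before and after measured by reverse-phase HPLC against pramlintide standard.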

SMILES	ThT pH 4.0 lag time (physical stability in fibrillogenesis assay) [h]	ThT pH 4.0 lag time [h]
CC[C@H](C)[C@H](NC(=O)[C@@H]1CCCN1C(=O)CNC(=O)[C@H](Cc1ccccc1)NC(=O)[C@H](CC(N)=O)NC(=O)[C@H](CC(N)=O)NC(=O)[C@H](CO)NC(=O)[C@H](CO)NC(=O)[C@H](Cc1c[nH]cn1)NC(=O)[C@H](Cc1c[nH]cn1)NC(=O)[C@H](CC(C)C)NC(=O)[C@H](Cc1ccccc1)NC(=O)[C@H](CCC(=O)O)NC(=O)[C@H](C)NC(=O)[C@H](CC(C)C)NC(=O)[C@H](CCCNC(=N)N)NC(=O)[C@H](CCC(N)=O)NC(=O)[C@@H](NC(=O)[C@H](C)NC(=O)[C@@H]1CSSC[C@H](NC(=O)[C@H](CCCCN)NC(=O)CC[C@H](NC(=O)CCCCCCCCCCCCCCCCCCC(=O)O)C(=O)O)C(=O)N[C@@H](CC(N)=O)C(=O)N[C@@H]([C@@H](C)O)C(=O)N[C@@H](C)C(=O)N[C@@H]([C@@H](C)O)C(=O)N1)[C@@H](C)O)C(=O)N[C@@H](CC(C)C)C(=O)N1CCC[C@H]1C(=O)N1CCC[C@H]1C(=O)N[C@H](C(=O)N[C@@H](CC(N)=O)C(=O)N[C@H](C(=O)NCC(=O)N[C@@H](CO)C(=O)N[C@@H](CCCCN)C(=O)N[C@H](C(=O)N[C@@H](Cc1ccc(O)cc1)C(N)=O)[C@@H](C)O)C(C)C)[C@@H](C)O [Example 113, N-alpha-[(S)-4-Carboxy-4-(19-carboxynonadecanoylamino)butyryl]-[Glu14,His17,Lys35]-pramlintide] ({C20 diacid-γGlu}-KCNTATCATQRLAEFLHHSSNNFGPILPPTNVGSKTY-NH2; disulfide 2-7 (inferred))	>45	>45
CC[C@H](C)[C@H](NC(=O)[C@@H]1CCCN1C(=O)CNC(=O)[C@H](Cc1ccccc1)NC(=O)[C@H](CC(N)=O)NC(=O)[C@H](CC(N)=O)NC(=O)[C@H](CO)NC(=O)[C@H](CO)NC(=O)[C@H](Cc1c[nH]cn1)NC(=O)[C@H](CCCNC(=N)N)NC(=O)[C@H](CC(C)C)NC(=O)[C@H](Cc1ccccc1)NC(=O)[C@H](CCC(=O)O)NC(=O)[C@H](C)NC(=O)[C@H](CC(C)C)NC(=O)[C@H](CCCNC(=N)N)NC(=O)[C@H](CCC(N)=O)NC(=O)[C@@H](NC(=O)[C@H](C)NC(=O)[C@@H]1CSSC[C@H](NC(=O)CNC(=O)CC[C@H](NC(=O)CCCCCCCCCCCCCCCCCCC(=O)O)C(=O)O)C(=O)N[C@@H](CC(N)=O)C(=O)N[C@@H]([C@@H](C)O)C(=O)N[C@@H](C)C(=O)N[C@@H]([C@@H](C)O)C(=O)N1)[C@@H](C)O)C(=O)N[C@@H](CC(C)C)C(=O)N1CCC[C@H]1C(=O)N1CCC[C@H]1C(=O)N[C@H](C(=O)N[C@@H](CC(N)=O)C(=O)N[C@H](C(=O)NCC(=O)N[C@@H](CO)C(=O)N[C@@H](CC(N)=O)C(=O)N[C@H](C(=O)N1CCC[C@H]1C(N)=O)[C@@H](C)O)C(C)C)[C@@H](C)O [Example 88, N-alpha-[(S)-4-Carboxy-4-(19-carboxynonadecanoylamino)butyryl]-[Gly1,Glu14,Arg17,Pro37]-pramlintide] ({C20 diacid-γGlu}-GCNTATCATQRLAEFLRHSSNNFGPILPPTNVGSNTP-NH2; disulfide 2-7)	>45	>45
CC(C)C[C@H](NC(=O)[C@H](CCCNC(=N)N)NC(=O)[C@H](CCC(N)=O)NC(=O)[C@@H](NC(=O)[C@H](C)NC(=O)[C@@H]1CSSC[C@H](NC(=O)[C@H](CCCCN)NC(=O)CC[C@H](NC(=O)CCCCCCCCCCCCCCCCCCC(=O)O)C(=O)O)C(=O)N[C@@H](CC(N)=O)C(=O)N[C@@H]([C@@H](C)O)C(=O)N[C@@H](C)C(=O)N[C@@H]([C@@H](C)O)C(=O)N1)[C@@H](C)O)C(=O)N[C@@H](C)C(=O)N[C@@H](CCC(=O)O)C(=O)N[C@@H](Cc1ccccc1)C(=O)N[C@@H](CC(C)C)C(=O)N[C@@H](CCCNC(=N)N)C(=O)N[C@@H](Cc1c[nH]cn1)C(=O)N[C@@H](CO)C(=O)N[C@@H](CO)C(=O)N[C@@H](CC(N)=O)C(=O)N[C@@H](CC(N)=O)C(=O)N[C@@H](Cc1ccccc1)C(=O)NCC(=O)N[C@@H](C)C(=O)N1CCC[C@H]1C(=O)N[C@@H](CC(C)C)C(=O)N[C@@H](CO)C(=O)N[C@@H](CO)C(=O)N[C@H](C(=O)N[C@@H](CC(N)=O)C(=O)N[C@H](C(=O)NCC(=O)N[C@@H](CO)C(=O)N[C@@H](Cc1c[nH]cn1)C(=O)N[C@H](C(=O)N[C@@H](Cc1ccc(O)cc1)C(N)=O)[C@@H](C)O)C(C)C)[C@@H](C)O [Example 65, N-alpha-[(S)-4-Carboxy-4-(19-carboxynonadecanoylamino)butyryl]-[Glu14,Arg17,Ala25,Pro26,Ser28,Ser29,His35]-pramlintide] ({C20 diacid-γGlu}-KCNTATCATQRLAEFLRHSSNNFGAPLSSTNVGSHTY-NH2; disulfide 2-7)		>45
CC[C@H](C)[C@H](NC(=O)[C@@H]1CCCN1C(=O)CNC(=O)[C@H](Cc1ccccc1)NC(=O)[C@H](CC(N)=O)NC(=O)[C@H](CC(N)=O)NC(=O)[C@H](CO)NC(=O)[C@H](CO)NC(=O)[C@H](CCCNC(=N)N)NC(=O)[C@H](Cc1c[nH]cn1)NC(=O)[C@H](CC(C)C)NC(=O)[C@H](Cc1ccccc1)NC(=O)[C@H](CCC(=O)O)NC(=O)[C@H](C)NC(=O)[C@H](CC(C)C)NC(=O)[C@H](CCCNC(=N)N)NC(=O)[C@H](CCC(N)=O)NC(=O)[C@@H](NC(=O)[C@H](C)NC(=O)[C@@H]1CSSC[C@H](NC(=O)[C@H](Cc2c[nH]cn2)NC(=O)CC[C@H](NC(=O)CCCCCCCCCCCCCCCCCCC(=O)O)C(=O)O)C(=O)N[C@@H](CC(N)=O)C(=O)N[C@@H]([C@@H](C)O)C(=O)N[C@@H](C)C(=O)N[C@@H]([C@@H](C)O)C(=O)N1)[C@@H](C)O)C(=O)N[C@@H](CC(C)C)C(=O)N1CCC[C@H]1C(=O)N1CCC[C@H]1C(=O)N[C@H](C(=O)N[C@@H](CC(N)=O)C(=O)N[C@H](C(=O)NCC(=O)N[C@@H](CO)C(=O)N[C@@H](Cc1c[nH]cn1)C(=O)N[C@H](C(=O)N[C@@H](Cc1ccc(O)cc1)C(N)=O)[C@@H](C)O)C(C)C)[C@@H](C)O [Example 77, N-alpha-[(S)-4-Carboxy-4-(19-carboxynonadecanoylamino)butyryl]-[His1,Glu14,His17,Arg18,His35]-pramlintide] ({C20 diacid-γGlu}-HCNTATCATQRLAEFLHRSSNNFGPILPPTNVGSHTY-NH2; disulfide 2-7 (inferred))		>45
CC[C@H](C)[C@H](NC(=O)[C@@H]1CCCN1C(=O)CNC(=O)[C@H](Cc1ccccc1)NC(=O)[C@H](CC(N)=O)NC(=O)[C@@H](NC(=O)[C@H](CO)NC(=O)[C@H](CO)NC(=O)[C@H](Cc1c[nH]cn1)NC(=O)[C@H](Cc1c[nH]cn1)NC(=O)[C@H](CC(C)C)NC(=O)[C@H](Cc1ccccc1)NC(=O)[C@H](CCC(=O)O)NC(=O)[C@H](C)NC(=O)[C@H](CC(C)C)NC(=O)[C@H](CCCNC(=N)N)NC(=O)[C@H](CCC(N)=O)NC(=O)[C@@H](NC(=O)[C@H](C)NC(=O)[C@@H]1CSSC[C@H](NC(=O)[C@H](CCCCN)NC(=O)CC[C@H](NC(=O)CCCCCCCCCCCCCCCCCCC(=O)O)C(=O)O)C(=O)N[C@@H](CC(N)=O)C(=O)N[C@@H]([C@@H](C)O)C(=O)N[C@@H](C)C(=O)N[C@@H]([C@@H](C)O)C(=O)N1)[C@@H](C)O)[C@@H](C)O)C(=O)N[C@@H](CC(C)C)C(=O)N1CCC[C@H]1C(=O)N1CCC[C@H]1C(=O)N[C@H](C(=O)N[C@@H](CC(N)=O)C(=O)N[C@H](C(=O)NCC(=O)N[C@@H](CO)C(=O)N[C@@H](CC(N)=O)C(=O)N[C@H](C(=O)N1CCC[C@H]1C(N)=O)[C@@H](C)O)C(C)C)[C@@H](C)O [Example 146, N-alpha-[(S)-4-Carboxy-4-(19-carboxynonadecanoylamino)butyryl]-[Glu14,His17,Thr21,Pro37]-pramlintide] ({C20 diacid-γGlu}-KCNTATCATQRLAEFLHHSSTNFGPILPPTNVGSNTP-NH2; disulfide 2-7)	>45	>45
CC[C@H](C)[C@H](NC(=O)[C@@H]1CCCN1C(=O)CNC(=O)[C@H](Cc1ccccc1)NC(=O)[C@H](CO)NC(=O)[C@H](CO)NC(=O)[C@H](CO)NC(=O)[C@H](CO)NC(=O)[C@H](CCCNC(=N)N)NC(=O)[C@@H](NC(=O)[C@H](CC(C)C)NC(=O)[C@H](Cc1ccccc1)NC(=O)[C@H](CCC(=O)O)NC(=O)[C@H](C)NC(=O)[C@H](CC(C)C)NC(=O)[C@H](CCCNC(=N)N)NC(=O)[C@H](CCC(N)=O)NC(=O)[C@@H](NC(=O)[C@H](C)NC(=O)[C@@H]1CSSC[C@H](NC(=O)[C@H](CCCCN)NC(=O)CC[C@H](NC(=O)CCCCCCCCCCCCCCCCCCC(=O)O)C(=O)O)C(=O)N[C@@H](CC(N)=O)C(=O)N[C@@H]([C@@H](C)O)C(=O)N[C@@H](C)C(=O)N[C@@H]([C@@H](C)O)C(=O)N1)[C@@H](C)O)C(C)C)C(=O)N[C@@H](CC(C)C)C(=O)N[C@@H](CO)C(=O)N[C@@H](CO)C(=O)N[C@H](C(=O)N[C@@H](CC(=O)O)C(=O)N[C@H](C(=O)NCC(=O)N[C@@H](CO)C(=O)N[C@@H](CC(=O)O)C(=O)N[C@H](C(=O)N1CCC[C@H]1C(N)=O)[C@@H](C)O)C(C)C)[C@@H](C)O [Example 170, N-alpha-[(S)-4-Carboxy-4-(19-carboxynonadecanoylamino)butyryl]-[Glu14,Arg18,Ser21,Ser22,Ser28,Ser29,Asp31,Asp35,Pro37]-pramlintide] ({C20 diacid-γGlu}-KCNTATCATQRLAEFLVRSSSSFGPILSSTDVGSDTP-NH2; disulfide 2-7)	>45	>45
